{"source": "patent US20220016241A1", "about": "“COMPOSITIONS AND METHODS FOR REDUCING ANTIGEN-SPECIFIC IMMUNOGENICITY” (The Research Foundation for The State University of New York, priority 2013, published 2022)", "key": {"GAA peptide": {"target": "T1, GAA peptide (Homo sapiens, UniProt P10253)", "T1 construct": "purchased American Peptide Company (Sunnyvale, Calif.); host or cells: chemical synthesis", "test": "Binding of OPLS to GAA peptide by ultraviolet/visible spectroscopy", "source_text": "Instead of using fluorescence to detect binding, ultraviolet/visible spectroscopy was used."}, "anti-Ova antibody titers": {"tested_on": "anti-Ova antibody titers", "test": "Effect of OPLS on immunogenicity of ovalbumin after SC administration", "format": "in vivo, SW mice", "settings": "5 mg OPLS with 1 μg Ova s.c.", "procedure": "Methods: 14 SW mice between 6 and 8 weeks of age were divided into 2 groups: group one received 1 μg OVA SC in the abdominal region. Group two received 1 μg OVA/5 mg OPLS SC in the abdominal region. This treatment was given one day 1, 8, 10 and 12. Three days after the last injection the animals were sacrificed. Blood was centrifuged at 7500 rpm for 5 min at 4° C. Plasma was then removed and stored at -80° C. until analysis Titers values were obtained using an anti-Ova IgG […] analysis kit as per the manufacturers instruction (alphadiagnostic international). Statistics was done on the arithmetic mean of the log transformed data, graphs are reported as geometric means. Non-responders were given the value of the plate specific factor for uniformity."}, "[1]": {"tested_on": "anti-GAA peptide antibody titers", "test": "Effect of OPLS and PS-liposomes on GAA peptide immunogenicity", "format": "in vivo, mouse", "settings": "10 μg peptide, 4 weekly s.c.; OPLS 5 mg or PS/PC 1:10,000 protein:lipid", "procedure": "Materials and Methods. GAA peptide Source: This GAA peptide was produced by American Peptide Company (Sunnyvale, Calif.). They produced for us a peptide […] containing amino acids 339-352 of the full length GAA sequence, YIFLGPEPKSVVQ (SEQ ID NO:1). OPLS Source: Sigma-Aldrich (St. Louis, Mo.) Peptide concentration dose: 10 μg/injection. Free GAA peptide (n=4), PS-GAA peptide (n=4), and OPLS-GAA peptide (n=5). Each mouse received 4 weekly subcutaneous (s.c.) injections near the base of the tail of 100 μl/injection of their treatment. Two weeks after the last injection, a retro-orbital blood sample was taken from each mouse. Samples were stored at −80° C. until analysis. These samples were then analyzed for anti-GAA peptide Ab titers. Anti-GAA antibody titers were measured as follows: ELISA plate (maxisorp, NUNC) was coated with 100 μl of 10 μg/ml of sterile rhGAA in sodium carbonate-bicarbonate buffer pH=9.6. The plate was incubated overnight at 4° C. The plate was washed six times with PBS containing 0.05% Tween 20 (PBS-T, 250 μl/well) using an automated plate washer. […] The reaction was stopped with 2 N sulfuric acid and read immediately at 450 nm using a micro-plate reader. The titer values are quantitated using a statistical endpoint method as described by Frey et al. Control plasma samples were run on each plate. […]"}, "GAA": {"target": "T2, GAA (Homo sapiens, UniProt P10253)", "T2 construct": "Full length recombinant rhGAA was produced in Human Kidney Embryo Cells for our use by Creative Biomart; purchased Creative Biomart (Shirley, N.Y.); host or cells: Human Kidney Embryo Cells", "test": "Binding of OPLS to GAA by fluorescence spectroscopy", "settings": "spectroscopic titration", "procedure": "The binding of OPLS to several therapeutic proteins was evaluated using fluorescence spectroscopy (FIG. 2)."}, "[2]": {"test": "PK of FVIII in the presence and absence of OPLS", "format": "in vivo, HA mice"}, "[3]": {"test": "Plasma chemistry markers after 28 daily injections of OPLS", "format": "in vivo, CD-1 mice", "settings": "up to highest dose, 1 day after dosing", "source_text": "FIG. 21. Effect of 28 daily injections of a range of OPLS doses on plasma chemistry markers of CD-1 mice. Samples were collected from animals 1 day after the termination of dosing."}, "[4]": {"test": "Plasma creatine kinase and injection site after 28 daily s.c. injections of OPLS", "format": "in vivo, CD-1 mice", "source_text": "FIG. 22. Plasma Creatine Kinase (CK: an enzyme with high expression in myocytes, elevation of plasma CK is an indication of damage to muscle tissue) activity levels after 28 daily s.c. injections of OPLS to CD-1 mice."}, "[5]": {"tested_on": "anti-Humira antibody titers", "test": "Effect of OPLS on immunogenicity of adalimumab", "format": "in vivo, mice", "settings": "5 mg OPLS with Humira s.c., 4 weekly injections, 2 weeks washout", "procedure": "Methods: n=8 animals/group were immunized with 4 weekly s.c. injections of 10 μg of adalimumab in 100 μl of either sterile TRIS for the free group or in 5 mg OPLS in sterile TRIS for the OPLS-Adalimumab group. After a 2 week rest period, a blood sample from the saphenous vein was collected for titer analysis. Titer values were obtained by classical sandwitch ELISA. Briefly, Nunc-Maxisorb 96-well plates were coated overnight at 4° C. with 50 μl/well of 2.5 μg/ml Humira. Plates were then washed and blocked with 1% bovine serum albumin (blocking buffer). 50 μl/well of various dilutions of the sample were added to the plate and incubated at room temperature for 2 h. Plasma samples from animals exposes to a sham treatment (buffer only) served as controls. The plates were then washed and incubated with 50 μl of goat anti-mouse anti-body-HRP conjugate at a 1:50000 dilution in blocking buffer at room temperature for 1 h. Color was developed for 20 min with 100 μl of TMB solution. 100 μl of 2 N H2SO4 was used to stop the reaction. Optical density at […] was measured using a plate reader. Non-responders were given the value of the plate specific factor for uniformity."}}}
{"smiles": "N[C@@H](COP(=O)(O)O)C(=O)O", "note": "[OPLS, O-Phospho-L-Serine]", "values": [{"measurement": "Binding of GAA peptide to OPLS", "setting": "GAA peptide", "value": "did not bind"}, {"measurement": "Anti-Ova antibody titers vs Ova alone", "setting": "anti-Ova antibody titers", "value": "lower"}, {"measurement": "Anti-GAA peptide antibody titers vs GAA peptide alone", "setting": "[1]", "value": "lower"}, {"measurement": "Binding affinity of GAA for OPLS", "setting": "GAA", "value": "lowest affinity"}, {"measurement": "FVIII plasma exposure after intravenous co-administration", "setting": "[2]; iv, FIG. 4", "value": "slight increase"}, {"measurement": "Bioavailability after subcutaneous co-administration", "setting": "[2]; sc co-administration vs biotherapeutic alone", "value": "improves"}, {"measurement": "Lymphatic uptake from the subcutaneous space", "setting": "[2]; sc co-administration vs biotherapeutic alone, FIGS. 5A and 5B", "value": "improves"}, {"measurement": "Impact on renal and hepatic function (plasma chemistry markers)", "setting": "[3]", "value": "no impact"}, {"measurement": "Plasma creatine kinase activity vs vehicle", "setting": "[4]", "value": "No statistical significance"}, {"measurement": "Injection site pathology at necropsy", "setting": "[4]; macroscopic evaluation", "value": "No visible injection site pathology"}, {"measurement": "Anti-Humira antibody titers vs Humira alone", "setting": "[5]", "value": "lower"}]}
